What all share (format): in vivo
The test system of data set [1] is strigolactones (4-deoxyorobanchol, orobanchol) release. The experiment in a line: LC-MS/MS quantification of SLs in rice root exudates. Particulars: 5 μM; for SL level of the root exudate: wild-type rice seedlings, Pi-starvation, 6 h, compared with Zaxinone (FIGS. 19, 20A-20B); for SL level / release in root exudates (4-DO, Oro): Pi starvation, in comparison with MZ1 and mock control (FIGS. 21A-21C). Here is the method: For SL analysis, one-week-old seedlings were transferred into 50 ml falcon tubes (two seedlings per tube), containing half-strength Hoagland nutrient solution with K2HPO4.2H2O (+Pi), and grown in the biochamber for one week. Rice seedlings were then subjected to phosphate deficiency (−Pi) for another one week. On the day of root exudates collection, rice seedlings were first treated with 5 μM Zaxinone, or MZ compounds for 6 h, and then root exudates and root tissues were collected from each tube for LC-MS/MS analysis and Striga bioassays.
For the quantification of SLs in rice root exudates, 50 ml of root exudates spiked with 0.672 ng of D6-5-deoxystrigol, was brought on a 500 mg/3 ml fast SPE C18 column preconditioned with 6 ml of methanol and 3 ml of water. After washing with 3 ml of water, SLs were eluted with 5 ml of acetone. The 4-deoxyorobanchol fraction (acetone-water solution) was concentrated to SL aqueous solution (˜500 μl), followed by the extraction with 1 ml of ethyl acetate. 750 μl of SLs enriched organic phase was then transferred to 1.5 ml tube and evaporated to dryness under vacuum. The dried extract was dissolved in 100 μl of acetonitrile:water (25:75, v:v) and filtered through a 0.22 µm filter for LC-MS/MS analysis.

In another data set the test system is wild-type rice plants. The experiment in a line: Rice phenotypes in soil (rhizotron system). Particulars: 5 μM. As for the experimental part:
For testing MZ3 and MZ5 on rice phenotypes in the rhizotron system (48 cm×24 cm×5 cm), three-day-old seedlings were grown in soil with half-strength modified Hoagland nutrient solution containing 0.4 mM K2HPO4.2H2O (+Pi) and 5 μM zaxinone for two weeks. The solution was changed every other day, adding the chemical at each renewal. To increase the compounds stability, 1 μl/ml emulsifier (cyclohexanone+Atlas […] kindly provided by a person […] of CRODA, Gouda; The Netherlands) was added into Hoagland nutrient solution. Root surface area was analyzed with the ImageJ software.

In data set [2] the test system is SL biosynthesis genes D27, CCD7, CCD8, CO. The data set can be described thus: qRT-PCR transcript analysis of SL biosynthesis genes in rice roots. The settings on record: 5 μM; for transcript levels of SL biosynthesis enzymes D27, CCD7, CCD8 and CO: wild-type rice seedlings, Pi-starvation, 6 h. As for the experimental part: For transcript analysis, one-week-old seedlings were grown hydroponically in half-strength modified Hoagland nutrient solution with K2HPO4.2H2O (+Pi) and without K2HPO4.2H2O (+Pi) (−Pi) for 7 days. Seedlings were further treated with zaxinone or MZ compounds for 6 h, and tissues were collected.
Roots of rice seedling were ground and homogenized in liquid nitrogen, and total RNA was isolated using a Direct-zol RNA Miniprep Plus Kit following the manufacturer's instructions (ZYMO RESEARCH; USA). cDNA was synthesized from 1 μg of total RNA using iScript cDNA Synthesis Kit (BIO-RAD Laboratories, Inc, 2000 Alfred Nobel Drive, Hercules, Calif.; USA) according to the instructions in the user manual. The gene expression level was detected by real-time quantitative RT-PCR (qRT-PCR) which was performed using SYBR Green Master Mix (Applied Biosystems; www.lifetechnologies.com) in a CFX384 Touch™ Real-Time PCR Detection System (BIO-RAD Laboratories, Inc, 2000 Alfred Nobel Drive, Hercules, Calif.; USA). The gene expression level was calculated by normalization of a housekeeping gene in rice, Ubiquitin (OsUBQ) (Table 1). The relative gene expression level was calculated according to 2-^ΔΔCT method.
For orientation: Real-time PCR tracks product formation cycle by cycle.

The subject of a further data set is Striga hermonthica. The data set can be described thus: Striga hermonthica infection of rice in pots. The settings on record: 5 μM, rice cv IAC-165 in pots with Striga infested soil (FIG. 13). Here is the method: Pots experiment was conducted and slightly adapted from the protocol as described previously About 20 mg (ca 8000) Striga seeds were thoroughly mixed in 1.5 L sand and soil mixture (1:1) and added in 3 L perforated plastic pot containing 0.5 L clean soil in the bottom. The pots were kept in greenhouse-controlled conditions at 35° C. under moisture to preconditioned Striga seeds for 10 days. On 11th day, one week old five rice seedlings (cv IAC165) were planted in each pot. After three days of rice planting, each pot was first irrigated with 250 ml phosphorus deficient Hoaglands nutrient solution and after four hours of irrigation 25 ml formulated MZ3, MZ5 and Zaxinone (100 μM) were sprayed. Next day, each pot was again supplied with 250 ml nutrient solution to make the final concentration of each compound to 5 μM and to move the compound to rice seedlings. Pots with and without Striga seeds were kept as the negative and positive control. Each compound was applied twice in a week up to four weeks. The rice plants were grown under normal growth condition (30° C., 70% RH) for eight weeks. The number of emerged Striga plants in each pot were counted.

A short description of data set [3]: LC-MS analysis of rice plants fed with the mimics. Particulars: data not shown; for conversion into the methoxy mimic (MZ3 or MZ5) in rice plants: rice plants fed with the mimic.
A further data set has as its system Striga hermonthica seeds. The experiment in a line: Striga hermonthica seed germination bioassay with root exudates of treated rice seedlings. Particulars: for decrease of Striga seed germination rate: exudates of rice seedlings treated with 5 μM compound, Pi starvation (FIG. 2). Here is the method:
For SL analysis, one-week-old seedlings were transferred into 50 ml falcon tubes (two seedlings per tube), containing half-strength Hoagland nutrient solution with K2HPO4.2H2O (+Pi), and grown in the biochamber for one week. Rice seedlings were then subjected to phosphate deficiency (−Pi) for another one week. On the day of root exudates collection, rice seedlings were first treated with 5 μM Zaxinone, or MZ compounds for 6 h, and then root exudates and root tissues were collected from each tube for LC-MS/MS analysis and Striga bioassays. Striga hermonthica seed germination bioassays were conducted by following the procedure as described previously. About 50-100 sterilized Striga seeds were spread on a glass fiber filter paper disc. Then 12 discs with Striga seeds were put on a sterilized filter paper, moistened with 3 ml sterilized water in a 90 mm petri plate. The plates were sealed with parafilm and cover with aluminum foil. All the plates were kept at 30° C. for 10 days for pre-conditioning. On 11th day, six dry discs with pre-conditioned seeds were selected and put in a 90 mm petri-dish. A filter paper ring moistened with 0.9 ml sterile MilliQ water was placed in the plate. The root exudates collected from Zaxinone or MZ compounds treated rice seedlings was applied at 50 μl on each six disc. Sterile MilliQ water and standard SL analog GR24 (2.5 μM) were included as a negative and positive control, respectively. After application, Striga seeds were incubated in dark at 30° C. for 24 hours. Germination (seeds with radicle emerging through seed coat) was scored under a binocular microscope, and germination rate (%) was calculated.

The test system of data set [4] is Gigaspora margarita spores. The experiment in a line: Gigaspora margarita spores germination. Here is the method:
Spores were sterilized in a solution of Streptomycine sulphate (0.03% W/V) and Chloramine T (3% W/V) and germinated in 200 μl of MZ3 and MZ5 at 5 μM or 50 nM, GR24 10 nM or a solution of Water/Acetone (12.5 μl acetone in 25 ml water). For each treatments 96 sterilized spores were placed individually in the wells of a multi-well plate and treated with freshly prepared solutions at the beginning of the experiment and after 3 days. Spores were germinated in the dark at 30° C. and the germination rate was evaluated after 3 days and 7 days.

Where [5] appears, read: roots and root exudates, Pi-starved WT rice, 6 hours.

“Also recorded” adds a separate entry of the source.

`CC(=O)c1cccc(-c2cccc(-c3cccc(-c4cccc(-c5ccc(O)cc5)c4)c3)c2)c1` [MZ6]: the “SL level of the root exudate” value in data set [1] was “did not show significant activity”.
Consider `COc1ccc(-c2cccc(-c3cccc(C(C)=O)c3)c2)cc1` [MZ5], for which, in data set [1] (setting [5]), the “effect on 4-deoxyorobanchol relative to Zaxinone” value is recorded as “significantly stronger” and the “effect on SL levels relative to Zaxinone” value is on record as “reduced SL levels more than zaxinone”. Besides, in data set [1], the “SL level of the root exudate” value is reported as “obvious effect”. Besides, the “root surface area and root numbers of WT plants compared with zaxinone treatment” value in the data set with wild-type rice plants is recorded as “increased more”. In data set [2] (wild-type rice roots, Pi starvation, 6 h (FIGS. 12A-12D)), the “CCD7 and CO transcript level compared with Zaxinone” value is recorded as “significantly lower”. Moreover, the “transcript levels of SL biosynthesis enzymes D27, CCD7, CCD8 and CO” value (“transcript levels” for short) in data set [2] was “pronounced decrease”. Also, the “reduction of the number of emerging Striga plants compared to the untreated control” value in the data set with Striga hermonthica was found to be 55%. Besides, in data set [3], the “presence in shoots of rice plants fed through roots” value is “detected”. Besides, the “decrease of Striga seed germination rate” value with Striga hermonthica seeds is listed as about 46%. The spore germination rate result in data set [4] (5 μM and 50 nM, 3 and 7 days) is on record as “no effect”.
Take `CC(=O)/C=C/c1cccc(-c2ccc(O)cc2)c1` [MZ1]: the “SL level of the root exudate” value in data set [1] was “did not show significant activity”.
Turning to `CC(=O)/C=C/c1cccc(Oc2ccc(O)cc2)c1` [MZ2, (E)-4-(3-(4-hydroxyphenoxy)phenyl)but-3-en-2-one], in data set [1], the “SL level / release in root exudates (4-DO, Oro)” value is recorded as “significant decrease” and the “SL level of the root exudate” value was “did not affect”. Also, in data set [2], the “transcript levels” value is recorded as “downregulating; also recorded: reduced”. Besides, the “conversion into the methoxy mimic (MZ3 or MZ5) in rice plants” value in data set [3] is reported as “not detected”.
Regarding `CC(=O)c1cccc(-c2cccc(-c3cccc(-c4cccc(-c5cccc(-c6ccc(C)cc6)c5)c4)c3)c2)c1` [MZ7], the “SL level of the root exudate” value in data set [1] was “did not show significant activity”.
Take `CC(=O)c1cccc(-c2cccc(-c3ccc(O)cc3)c2)c1` [MZ4, 1-(4″-hydroxy-[1,1′:3′,1″-terphenyl]-3-yl)ethan-1-one]: in data set [1], the “SL level / release in root exudates (4-DO, Oro)” value is recorded as “tendency to reduce” and the “SL level of the root exudate” value was “did not affect”. Moreover, the “transcript levels” value in data set [2] was “downregulating; also recorded: reduced”. In addition, the “conversion into the methoxy mimic (MZ3 or MZ5) in rice plants” value in data set [3] is “not detected”. In the data set on Striga hermonthica seeds (exudates of rice plants treated at 5 μM, Pi starvation), the “effect on Striga seed germination” value is recorded as “did not suppress”.
`CC1=C[C@H](O/C=C2/C(=O)O[C@@H]3c4ccccc4C[C@H]23)OC1=O` [GR24, reference compound]: the spore germination rate result in data set [4] (GR24 10 nM) is “highest”.
As to `CC(=O)/C=C/C=C(C)/C=C/C1=C(C)CC(O)CC1(C)C` (stereo in doubt) [Zaxinone, reference compound], in the data set with Striga hermonthica, the “reduction of the number of emerging Striga plants compared to the untreated control” value is on record as 42%. Also, the “decrease of Striga seed germination rate” value with Striga hermonthica seeds is reported as “around 29%”. For the same compound, the spores germination result in data set [4] (Zaxinone, after 3 and 7 days) is on record as “did not affect”.

The record behind these values is patent US20220400669A1, “COMPOUNDS AND METHODS FOR PROMOTING PLANT GROWTH” (King Abdullah University of Science and Technology, priority 2019, published 2022).
